Like-named read-outs stand apart in the source and are kept apart here.
How the values were obtained:
tubulin = assay: photometric measurement of polymerisation of tubulin and depolymerisation of microtubules (350 nm); format: biochemical, bovine; details: photometry, compared with taxol/control; for effect on polymerisation of tubulin: 37° C., tubulin 2 mg protein/ml; for stabilisation of microtubules (effect on depolymerisation): depolymerisation initiated by reducing temperature to 15° C.
Procedure: Bovine brains (each 330 g) are removed from freshly opened cows' heads and are transported in ice-cooled PM4-M buffer. Each brain is freed of the meninges and also of any thrombi and is homogenised with sufficient PM4M buffer in a cooling chamber. The homogenised material from 2 bovine brains is made up to a total volume of 1.0 liter with a total of 500 ml of buffer and is subjected to a first centrifugation (GSA rotor, 15 minutes, 4° C., 6500 g). The supernatant is freed of the sebaceous skin on the surface, filtered over 4 layers of thin muslin, transferred into counter-balanced centrifuge tubes (420 ml) and centrifuged again (Ti 45 rotor, 96000 g, 75 minutes, 4° C.). The supernatant is removed by pipette through the pellet and filtered over 6 layers of thin muslin, and a 50 mM GTP solution in 0.001M bicarbonate/PBS is added to obtain a final concentration of 1 mM. A first polymerisation is carried out in counter-balanced centrifuge tubes for 45 minutes in a water bath warmed to 37° C. The microtubules that have formed are removed by centrifugation (Ti 45 rotor, 27° C., 96000 g, 60 minutes), the supernatant is carefully removed by pipette and the very soft, opalescent pellet is carefully separated from the wall with a spatula. 40 ml of cold PM buffer are then added to the pellet, followed by homogenisation using a small glass mortar and incubation overnight (from 12 to 16 hours) on ice in counter-balanced centrifuge tubes in a cooling chamber. The depolymerisation product is removed by centrifugation in the Ti 60 rotor (4° C.; 96000 g, 60 minutes) and the supernatant is diluted with PM8-M buffer to 1:1, incubated in counter-balanced centrifuge tubes at 37° C. for 45 minutes and centrifuged again (Ti 45 rotor, 27° C., 96000 g, 60 minutes). The supernatant is carefully removed by pipette and the very soft opalescent pellet is taken up in 20 ml of cold PM buffer, homogenised carefully using a small glass mortar and incubated on ice for 30 minutes. The renewed centrifugation (Ti 60 rotor, 4° C., 96000 g, 60 minutes) gives tubulin, the protein content of which is determined according to Pearce or according to a photometric measurement at 280 nm. In the protein determination, dilutions of isolated material to PM buffer of 1:10, 1:20 and 1:40 are used. The PM buffer has own extinction and is deducted as a zero value from the determined protein content. The isolated material is diluted with PM buffer to the intended protein concentration (2 mg/ml).
The measurement of the polymerisation of tubulin and the depolymerisation of microtubules is carried out by photometry. Before the measurement, the tubulin prepared in accordance with Application Example 1 is thawed and degassed for 15 minutes. The photometer is set to a wavelength of 350 nm. 3 μl of solvent/sample, 6 μl of GTP ([…] final.) and 291 μl of tubulin (2 mg protein/ml) are pipetted into the dry and cleaned dishes (10 mm). The sample is carefully stirred (without causing air bubbles), immediately placed in dish carriages and the measuring operation is started at 37° C. Once the polymerisation maximum has been reached (solvent control and taxol 1E-5 mol/l after 20 minutes), the depolymerisation is initiated by reducing the temperature to 15° C. The measuring operation is stopped at the end of the depolymerisation and the course of the change in absorption is represented in graph form as a function of time and temperature (see FIG. 1).

[1] = system: MDA MB 435 mammary carcinoma cells; assay: anti-proliferative effect on tumour cell line, MTT method; format: cell-based; details: for IC50: Homo sapiens; for inhibiting (anti-proliferative) activity compared with taxol, in words: MDA MB 435 cells, MTT, comparison with taxol
Procedure: The addition of the substance in several concentrations is carried out on day 1. The anti-proliferative effect is determined on day 3 using the MTT method. The IC50 values are determined therefrom.

[2] = MDA MB 435 mammary carcinoma cells, 5000 cells/well, substance added day 1, determined day 3, MTT, read-out: MDA-MB 435 cells IC50

## COC(=O)N[C@@H](c1ccncc1)[C@@H](O)C(=O)O[C@H]1C[C@@]2(O)[C@@H](OC(=O)c3ccccc3)[C@@H]3[C@]4(OC(C)=O)CO[C@@H]4C[C@H](O)[C@@]3(C)C(=O)[C@H](OC(C)=O)C(=C1C)C2(C)C [Compound 1, 3'-desphenyl-3'-(4-pyridyl)-3'-N-debenzoyl-3'-N-methoxycarbonyl-taxol]
tubulin
  effect on polymerisation of tubulin: inhibits the polymerisation
  stabilisation of microtubules (effect on depolymerisation): stabilises the microtubules that have formed distinctly better than taxol
[1]; [2]
  IC50: 2 nM
[1]
  inhibiting (anti-proliferative) activity compared with taxol, in words: activity similar to that of taxol

## COC(=O)N[C@@H](c1ccncc1)[C@@H](O)C(=O)O[C@H]1C[C@@]2(O)[C@@H](OC(=O)c3ccccc3)[C@@H]3[C@]4(OC(C)=O)CO[C@@H]4C[C@@H](O)[C@@]3(C)C(=O)[C@H](OC(C)=O)C(=C1C)C2(C)C [Compound 2, 3'-desphenyl-3'-(4-pyridyl)-3'-N-debenzoyl-3'-N-methoxycarbonyl-7-epi-taxol]
tubulin
  effect on polymerisation of tubulin: much more pronounced acceleration of the polymerisation of tubulin
  stabilisation of microtubules (effect on depolymerisation): stabilises the microtubules that have formed very much better than taxol
[1]; [2]
  IC50: 0.8 nM
[1]
  inhibiting (anti-proliferative) activity compared with taxol, in words: significantly improved inhibiting activity compared with taxol

## COC(=O)N[C@@H](c1ccncc1)[C@@H](O)C(=O)O[C@H]1C[C@@]2(O)[C@@H](O)[C@@H]3[C@]4(OC(C)=O)CO[C@@H]4C[C@H](O)[C@@]3(C)C(=O)[C@H](OC(C)=O)C(=C1C)C2(C)C [Compound 3, 3'-desphenyl-3'-(4-pyridyl)-2,3'-N-bisdebenzoyl-3'-N-methoxycarbonyl-taxol]
tubulin
  effect on polymerisation of tubulin: much more pronounced acceleration of the polymerisation of tubulin
  stabilisation of microtubules (effect on depolymerisation): stabilises the microtubules that have formed better than taxol
[1]; [2]
  IC50: 8000 nM

## COC(=O)N[C@@H](c1ccncc1)[C@@H](O)C(=O)O[C@H]1C[C@@]2(O)[C@@H](OC(=O)c3ccccc3)[C@@H]3[C@]4(OC(C)=O)CO[C@@H]4C[C@H](O)[C@@]3(C)C(=O)[C@H](O)C(=C1C)C2(C)C [Compound 4, 3'-Desphenyl-3'-(4-pyridyl)-3'-N-debenzoyl-3'-N-methoxycarbonyl-10-desacetyl-taxol]
tubulin
  effect on polymerisation of tubulin: does not differ from taxol in respect of the polymerisation behaviour of tubulin
  stabilisation of microtubules (effect on depolymerisation): stabilise the microtubules that have formed substantially better than taxol
[1]; [2]
  IC50: 60 nM

## CC(=O)O[C@H]1C(=O)[C@@]2(C)[C@H]([C@H](OC(=O)c3ccccc3)[C@]3(O)C[C@H](OC(=O)[C@H](O)[C@@H](NC(=O)c4ccccc4)c4ccccc4)C(C)=C1C3(C)C)[C@]1(OC(C)=O)CO[C@@H]1C[C@@H]2O [Taxol, reference compound]
tubulin
  effect on polymerisation of tubulin: speeds up the polymerisation of tubulin in comparison with the control
  stabilisation of microtubules (effect on depolymerisation): inhibits depolymerisation
[1]; MDA-MB-435, read-out: MDA-MB 435 cells IC50
  IC50: 3 nM

Reference: US6162920A, “Taxane derivatives having a pyridyl substituted C13 side chain, their preparation and their use as anti-tumor agents” (Schering Aktiensgesellschaft, priority 1996, dated 2000)
